What was measured:
[1] = DMSO, room temperature, FIG. 5
[2] = test system: Peripheral blood mononuclear cells (PBMC): lymphocytes and monocytes; experiment: 5 colour flow cytometry of PBMC after exposure to calixarenes; type: cell-based, human; conditions: 24 hours, 10^-4M, 2.5×10^-5M, 3.13×10^-6M
Method: A 5 colour flow cytometry based assay was done to complement the MTS assay to provide a better snapshot of the toxicology profile of the calixarenes. Four concentrations from the MTS assay graph results (Control, 1, 1/4 dilution and 1/32 dilution) were chosen to illustrate the differences in cell profiles after the exposure of the calixarenes. 500,000 cells in 0.5 ml was cultured with 50 μL of calixarenes in polypropylene tubes (BD Falcon, Sarstedt) for 24 hours at 37° C., 5% CO2, 10° angle with the lid loosely closed. Polypropylene tube cultures were chosen as it provides better yield of monocytes.
After the 24 hour incubation, a cell count was performed to ensure there were at least 200,000 cells in each sample. The cells were centrifuged at 400G for 8 minutes and washed twice with flow buffer (10% bovine serum albumin in 1×PBS) by centrifugation at 400G for 8 minutes. An antibody cocktail of 10 μL annexin V FITC (marker used to detect apoptosis of cells), 5 μL CD3 APC (marker for detection of T-cells), 2.5 μL CD14 PECy7 (marker for detection of monocytes), 5 μL HLA-DR PE (marker for detection of cell activation) and 5 μL 7-AAD (marker to detect cell death) in each tube was prepared. The cells were resuspended in 200 μL of 1× Annexin V binding buffer. 100 μL of the resuspended cells were added to flow tubes containing the antibody cocktail and was incubated at room temperature in the dark for at least 15 minutes. The samples were then read using BD FACS Canto flow cytometer within an hour of antibody incubation. The experiment was replicated in triplicates using PBMC from different individuals.
Lymphocyte and monocyte population characteristics are summarised in the graph in FIG. 8. Lymphocyte and monocyte population numbers are based on total population while apoptotic cells, dead cells, live cells etc are based on their respective populations. Lymphocytes normally make up 60% of total population. […] However, this is most likely due to total lysis of cells, which cannot be detected by dead cell marker. Monocytes normally make up 10-15% of total population. The culturing process seems to cause most monocytes to be apoptotic due to their fragile nature.
Phosphonated calix[5]arene was tested with flow cytometry at the following concentrations; 10^-4M, 2.5×10^-5M (1 in 4 dilution) and 3.13×10^-6M (1 in 32 dilution). Lymphocyte and monocyte population characteristics are summarised in the graph in FIG. 9. Lymphocyte and monocyte population numbers are based on total population while apoptotic cells, dead cells, live cells etc are based on their respective populations. Lymphocytes normally make up 60% of total population. […] However, this is most likely due to total lysis of cells, which cannot be detected by dead cell marker. Monocytes normally make up 10-15% of total population. Culturing process seems to cause most monocytes to be apoptotic due to their fragile nature and this finding is in line with our literature review. There is a decline in monocyte numbers with increasing concentration of this calixarene.

[3] = test system: Peripheral blood mononuclear cells (PBMC); experiment: Cell viability assay (MTS assay) on PBMC; type: cell-based, human; conditions: two fold dilutions starting from 10^−4M, FIG. 8 / FIG. 9
Method: Cytotoxicity of these calixarenes were conducted using Peripheral Blood Mononucleus Cell line (PBMC) which were extracted from subjects blood (50 ml sample). Each calixarene compound was tested on three subjects out of a pool of 5 people (all caucasian females of 20-25 years of age). The extracted cell content represent 1% of the blood sample and comprised of Lymphocyte (60%) and monocytes (10-15%). The experiment was conducted by incubating the cells in a 96 well plate in triplicate with the calixarenes for 24 hours at different concentrations at an estimated concentration of 100000 cells per well.
A pipeline was designed to obtain reliable preliminary toxicology data in vitro. The pipeline was designed to allow testing of any particles of interest within a short time frame. […]
PBMC were harvested using the Ficoll method. […] The cells are then suspended in freezing media (10% DMSO in HIFCS) at 10 million cells per ml and stored as 1 ml aliquots in liquid nitrogen until it is ready for use. […]
CellTitre 96© Aqueous One Solution Cell Proliferation Assay was used to measure cell viability. […] The PHA was added to trigger activation of lymphocytes which was hypothesised that it may alter the reading of the MTS assay. […] The plate is further incubated for another 4 hours and is read through a spectrophotometer at 490 nm. […]

Compound | time over which nano-rafts dissociate into solvated monomeric units [1] | monocyte numbers with increasing concentration [2] | proportion of dead lymphocytes with increasing concentration [2] | toxicity judged from cell viability (absorbance) [3] | live monocytes population numbers with increasing concentration [2]
5,11,17,23-Tetra(dihydroxyphosphoryl)-25,26,27,28-tetrahydroxycalix[4]arene [phosphonated calix[4]arene] | 36 h | slight decline | seems to decline | no significant sign of toxicity | –
O=P(O)(O)c1cc2c(O)c(c1)Cc1cc(P(=O)(O)O)cc(c1O)Cc1cc(P(=O)(O)O)cc(c1O)Cc1cc(P(=O)(O)O)cc(c1O)Cc1cc(P(=O)(O)O)cc(c1O)C2 [phosphonated calix[5]arene, 5,11,17,23,29-Penta(dihydroxyphosphoryl)-31,32,33,34,35-pentahydroxycalix[5] arene] | – | decline | seems to decline | less toxicity with this calixarene than with sulphonated calixarenes | seems to increase

Source: patent US8252954B2, “Processes for the preparation of calixarene derivatives” (The Curators of The University of Missouri, priority 2007, dated 2012)
